This test concerns HPA axis. Description: Plasma ACTH in dexamethasone-suppressed healthy subjects. To be noted: 1 mg oral dexamethasone repeated; confirms suppression of HPA axis. The format is in vivo, human.

Description: Plasma ACTH levels were taken at 2155 h on Day 1 and on 0600 h on Day 2 whilst serum cortisol levels were taken prior to ingestion of the drug and were repeated every 30 minutes for the first four hours, then at 0200 h, 0300 h, 0400 h, 0500 h, 0600 h, 0800 h, 1000 h, 1300 h, 1600 h, 2200 h.
Assays: Serum cortisol was measured using the Bayer Advia Centaur Automated Immunoassay System. The inter-assay coefficient variation was 7% at 200 nmol/l (7.2 μg/dl), and 8% at 1,050 nmol/l (38 μg/dl). Plasma ACTH was measured using the DPC Immulite 2000 assay. Plasma 17OH-progesterone was measured using Liquid Chromatography Tandem Mass Spectrometry at Quest Diagnostics (Nichols Institute, San Juan Capistrano, Calif., USA) with an inter-assay coefficient of variation of 8.2%.

Consider `C[C@@H]1C[C@H]2[C@@H]3CCC4=CC(=O)C=C[C@]4(C)[C@@]3(F)[C@@H](O)C[C@]2(C)[C@@]1(O)C(=O)CO` [dexamethasone], for which the “ACTH values below the assay lower limit” value is given as 98%.

These data come from patent US20110159095A1, “TREATMENT OF ADRENAL INSUFFICIENCY” (priority 2008, published 2011).
